Measurements from ChEMBL document CHEMBL3994622, “Design and synthesis of new RAF kinase-inhibiting antiproliferative quinoline derivatives. Part 2: Diarylurea derivatives” (Eur J Med Chem, 2017).

Legend:
Type in all cases: functional
NCI-H23 = test: Growth inhibition of human NCI-H23 cells assessed as cell growth at 0.5 uM incubated for 48 hrs by sulforhodamine B assay relative to control; conditions: NCI-H23, 48 h, read-out: Activity
K562 [1] = test: Growth inhibition of human K562 cells assessed as cell growth at 5 uM incubated for 48 hrs by sulforhodamine B assay relative to control; conditions: K562, 48 h, read-out: Activity
M14 = test: Growth inhibition of human M14 cells assessed as cell growth at 5 uM incubated for 48 hrs by sulforhodamine B assay relative to control; conditions: M14, 48 h, read-out: Activity
PC-3 = test: Growth inhibition of human PC3 cells assessed as cell growth at 5 uM incubated for 48 hrs by sulforhodamine B assay relative to control; conditions: PC-3, 48 h, read-out: Activity
A498 = test: Growth inhibition of human A498 cells assessed as cell growth at 0.5 uM incubated for 48 hrs by sulforhodamine B assay relative to control; conditions: A498, 48 h, read-out: Activity
CAKI-1 = test: Growth inhibition of human Caki1 cells assessed as cell growth at 5 uM incubated for 48 hrs by sulforhodamine B assay relative to control; conditions: CAKI-1, 48 h, read-out: Activity
COLO 205 = test: Growth inhibition of human COLO205 cells assessed as cell growth at 0.05 uM incubated for 48 hrs by sulforhodamine B assay relative to control; conditions: COLO 205, 48 h, read-out: Activity
LOX IMVI [2] = test: Growth inhibition of human LOXIMVI cells assessed as cell growth at 5 uM incubated for 48 hrs by sulforhodamine B assay relative to control; conditions: read-out: Activity
HT-29 = test: Growth inhibition of human HT-29 cells assessed as cell growth at 0.05 uM incubated for 48 hrs by sulforhodamine B assay relative to control; conditions: HT-29, 48 h, read-out: Activity
RPMI-8226 = test: Growth inhibition of human RPMI8226 cells assessed as cell growth at 0.5 uM incubated for 48 hrs by sulforhodamine B assay relative to control; conditions: RPMI-8226, 48 h, read-out: Activity
NCI/ADR-RES = test: Growth inhibition of human NCI/ADR-RES cells assessed as cell growth at 0.5 uM incubated for 48 hrs by sulforhodamine B assay relative to control; conditions: read-out: Activity
SK-MEL-2 [3] = test: Growth inhibition of human SK-MEL-2 cells assessed as cell growth at 50 uM incubated for 48 hrs by sulforhodamine B assay relative to control; conditions: SK-MEL-2, 48 h, read-out: Activity
SNB-19 = test: Growth inhibition of human SNB19 cells assessed as cell growth at 0.05 uM incubated for 48 hrs by sulforhodamine B assay relative to control; conditions: SNB-19, 48 h, read-out: Activity
SK-MEL-2 [4] = test: Growth inhibition of human SK-MEL-2 cells assessed as cell growth at 5 uM incubated for 48 hrs by sulforhodamine B assay relative to control; conditions: SK-MEL-2, 48 h, read-out: Activity
BT-549 = test: Growth inhibition of human BT549 cells assessed as cell growth at 50 uM incubated for 48 hrs by sulforhodamine B assay relative to control; conditions: BT-549, 48 h, read-out: Activity
SK-MEL-2 [5] = test: Growth inhibition of human SK-MEL-2 cells assessed as cell growth at 0.005 uM incubated for 48 hrs by sulforhodamine B assay relative to control; conditions: SK-MEL-2, 48 h, read-out: Activity
TK-10 = test: Growth inhibition of human TK10 cells assessed as cell growth at 50 uM incubated for 48 hrs by sulforhodamine B assay relative to control; conditions: TK-10, 48 h, read-out: Activity
OVCAR-5 = test: Growth inhibition of human OVCAR5 cells assessed as cell growth at 50 uM incubated for 48 hrs by sulforhodamine B assay relative to control; conditions: OVCAR-5, 48 h, read-out: Activity
SNB-75 = test: Growth inhibition of human SNB75 cells assessed as cell growth at 5 uM incubated for 48 hrs by sulforhodamine B assay relative to control; conditions: SNB-75, 48 h, read-out: Activity
786-0 = test: Growth inhibition of human 786-0 cells assessed as cell growth at 5 uM incubated for 48 hrs by sulforhodamine B assay relative to control; conditions: 786-0, 48 h, read-out: Activity
HOP-62 = test: Growth inhibition of human HOP62 cells assessed as cell growth at 0.5 uM incubated for 48 hrs by sulforhodamine B assay relative to control; conditions: HOP-62, 48 h, read-out: Activity
SF-295 = test: Growth inhibition of human SF295 cells assessed as cell growth at 50 uM incubated for 48 hrs by sulforhodamine B assay relative to control; conditions: SF-295, 48 h, read-out: Activity
EKVX = test: Growth inhibition of human EKVX cells assessed as cell growth at 0.5 uM incubated for 48 hrs by sulforhodamine B assay relative to control; conditions: read-out: Activity
K562 [6] = test: Growth inhibition of human K562 cells assessed as cell growth at 50 uM incubated for 48 hrs by sulforhodamine B assay relative to control; conditions: K562, 48 h, read-out: Activity
U-251 = test: Growth inhibition of human U251 cells assessed as cell growth at 50 uM incubated for 48 hrs by sulforhodamine B assay relative to control; conditions: U-251, 48 h, read-out: Activity
MDA-MB-231 = test: Growth inhibition of human MDA-MB-231 cells assessed as cell growth at 0.05 uM incubated for 48 hrs by sulforhodamine B assay relative to control; conditions: MDA-MB-231, 48 h, read-out: Activity
UACC-62 [7] = test: Growth inhibition of human UACC62 cells assessed as cell growth at 0.05 uM incubated for 48 hrs by sulforhodamine B assay relative to control; conditions: UACC-62, 48 h, read-out: Activity
UACC-62 [8] = test: Growth inhibition of human UACC62 cells assessed as cell growth at 0.005 uM incubated for 48 hrs by sulforhodamine B assay relative to control; conditions: UACC-62, 48 h, read-out: Activity
MDA-MB-435 = test: Growth inhibition of human MDA-MB-435 cells assessed as cell growth at 0.05 uM incubated for 48 hrs by sulforhodamine B assay relative to control; conditions: MDA-MB-435, 48 h, read-out: Activity
OVCAR-3 [9] = test: Growth inhibition of human OVCAR3 cells assessed as cell growth at 0.005 uM incubated for 48 hrs by sulforhodamine B assay relative to control; conditions: OVCAR-3, 48 h, read-out: Activity
DU-145 = test: Growth inhibition of human DU145 cells assessed as cell growth at 0.5 uM incubated for 48 hrs by sulforhodamine B assay relative to control; conditions: DU-145, 48 h, read-out: Activity
UACC-257 = test: Growth inhibition of human UACC257 cells assessed as cell growth at 50 uM incubated for 48 hrs by sulforhodamine B assay relative to control; conditions: UACC-257, 48 h, read-out: Activity
OVCAR-3 [10] = test: Growth inhibition of human OVCAR3 cells assessed as cell growth at 5 uM incubated for 48 hrs by sulforhodamine B assay relative to control; conditions: OVCAR-3, 48 h, read-out: Activity
LOX IMVI [11] = test: Growth inhibition of human LOXIMVI cells assessed as cell growth at 3 uM incubated for 48 hrs by sulforhodamine B assay relative to control; conditions: read-out: Activity

COc1cc2cc(Oc3ccc(NC(=O)Nc4cccc(C(F)(F)F)c4)cc3)c(C)nc2cc1OC
growth at 0.5 µM (NCI-H23): 97% | growth at 5 µM (K562 [1]): 13% | growth at 5 µM (M14): 14% | growth at 5 µM (PC-3): 3% | growth at 0.5 µM (A498): 85% | growth at 5 µM (CAKI-1): -7% | growth at 0.05 µM (COLO 205): 94% | growth at 5 µM (LOX IMVI [2]): 14% | growth at 0.05 µM (HT-29): 100% | growth at 0.5 µM (RPMI-8226): 86% | growth at 0.5 µM (NCI/ADR-RES): 95% | growth at 50 µM (SK-MEL-2 [3]): -87% | growth at 0.05 µM (SNB-19): 91% | growth at 5 µM (SK-MEL-2 [4]): -34% | growth at 50 µM (BT-549): -69% | growth at 0.005 µM (SK-MEL-2 [5]): 102% | growth at 50 µM (TK-10): -46% | growth at 50 µM (OVCAR-5): -44% | growth at 5 µM (SNB-75): 5% | growth at 5 µM (786-0): 12% | growth at 0.5 µM (HOP-62): 100% | growth at 50 µM (SF-295): -63% | growth at 0.5 µM (EKVX): 89% | growth at 50 µM (K562 [6]): -16% | growth at 50 µM (U-251): -99% | growth at 0.05 µM (MDA-MB-231): 95% | growth at 0.05 µM (UACC-62 [7]): 94% | growth at 0.005 µM (UACC-62 [8]): 93% | growth at 0.05 µM (MDA-MB-435): 96% | growth at 0.005 µM (OVCAR-3 [9]): 101% | growth at 0.5 µM (DU-145): 104% | growth at 50 µM (UACC-257): -75% | growth at 5 µM (OVCAR-3 [10]): 15%

COc1cc2cc(Oc3ccc(NC(=O)Nc4ccc(Cl)c(C(F)(F)F)c4)cc3)c(C)nc2cc1OC
growth at 3 µM (LOX IMVI [11]): 12%
